The source of these data is ChEMBL document CHEMBL5113453, “Design, synthesis, and biological evaluation of a new series of pyrazole derivatives: Discovery of potent and selective JNK3 kinase inhibitors” (Bioorg Med Chem, 2022).

Molecules are shown by their SMILES. Where only a bound is given, the exact number is not on record here.

In experiment [1] the target is T1, Mitogen-activated protein kinase 10 (Homo sapiens, UniProt P53779). The experiment can be described thus: Inhibition of JNK3 (unknown origin) at 1 uM relative to control.
T1 sequence (P53779 whole entry): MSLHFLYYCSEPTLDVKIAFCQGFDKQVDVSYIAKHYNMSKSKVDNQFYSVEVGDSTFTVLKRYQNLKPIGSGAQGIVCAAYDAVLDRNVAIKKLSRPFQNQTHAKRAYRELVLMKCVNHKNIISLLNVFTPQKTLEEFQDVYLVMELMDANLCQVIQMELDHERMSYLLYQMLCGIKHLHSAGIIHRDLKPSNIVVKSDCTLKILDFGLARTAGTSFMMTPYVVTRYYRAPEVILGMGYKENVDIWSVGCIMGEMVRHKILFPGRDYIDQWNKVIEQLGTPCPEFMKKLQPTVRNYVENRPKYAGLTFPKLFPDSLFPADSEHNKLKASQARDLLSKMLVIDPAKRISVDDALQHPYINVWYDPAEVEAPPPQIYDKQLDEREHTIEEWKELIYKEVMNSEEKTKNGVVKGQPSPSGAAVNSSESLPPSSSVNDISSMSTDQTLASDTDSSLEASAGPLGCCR
The target of experiment [2] is T1, Mitogen-activated protein kinase 10. The experiment can be described thus: Inhibition of JNK3 (unknown origin).
The subject of another experiment is HepG2. The experiment can be described thus: Antiproliferative activity against human HepG2 cells measured by MTT assay. The format is functional, cell-based.
The next experiment has as its system WI-38. The experiment can be described thus: Antiproliferative activity against human WI-38 cells measured by MTT assay. Format: functional, cell-based.
A further experiment has as its system TK-10. The experiment is described as follows: Antiproliferative activity against human TK-10 cells measured after 48 hrs by SRB assay. The format is functional, cell-based. The conditions noted are these: TK-10, time 48 hrs.
A further experiment concerns ACHN. The experiment is described as follows: Antiproliferative activity against human ACHN cells measured after 48 hrs by SRB assay. Format: functional, cell-based. The following applies: time 48 hrs.
The next experiment relates to NCI-H23. The experiment can be described thus: Antiproliferative activity against human NCI-H23 cells measured after 48 hrs by SRB assay. The following applies: NCI-H23, time 48 hrs. Format: functional, cell-based.
The next experiment has as its system NCI/ADR-RES. The experiment can be described thus: Antiproliferative activity against human NCI-ADR-RES cells measured after 48 hrs by SRB assay. The format is functional, cell-based. The conditions noted are these: time 48 hrs.
The test system of a further experiment is MOLT-4. The experiment can be described thus: Antiproliferative activity against human MOLT-4 cells measured after 48 hrs by SRB assay. The format is functional, cell-based. The conditions noted are these: MOLT-4, time 48 hrs.
The subject of a further experiment is UACC-257. The experiment can be described thus: Antiproliferative activity against human UACC-257 cells measured after 48 hrs by SRB assay. The format is functional, cell-based. The following applies: UACC-257, time 48 hrs.
A further experiment deals with HL-60(TB). The experiment is described as follows: Antiproliferative activity against human HL-60(TB) cells measured after 48 hrs by SRB assay. The conditions noted are these: HL-60, time 48 hrs. The format is functional, cell-based.
A further experiment deals with IGROV-1. The experiment can be described thus: Antiproliferative activity against human IGROV-1 cells measured after 48 hrs by SRB assay. Format: functional, cell-based. The following applies: IGROV-1, time 48 hrs.
The next experiment relates to HOP-92. The experiment is described as follows: Antiproliferative activity against human HOP-92 cells measured after 48 hrs by SRB assay. The conditions noted are these: HOP-92, time 48 hrs. The format is functional, cell-based.
The next experiment concerns MCF7. The experiment is described as follows: Antiproliferative activity against human MCF7 cells measured after 48 hrs by SRB assay. The format is functional, cell-based. The following applies: MCF7, time 48 hrs.
The target in the next experiment is Cytochrome P450 3A4 (Homo sapiens, UniProt P08684). The experiment can be described thus: Inhibition of CYP3A4 (unknown origin) using BOMCC as a substrate. The format is ADME.
Sequence of Cytochrome P450 3A4 (P08684 whole entry): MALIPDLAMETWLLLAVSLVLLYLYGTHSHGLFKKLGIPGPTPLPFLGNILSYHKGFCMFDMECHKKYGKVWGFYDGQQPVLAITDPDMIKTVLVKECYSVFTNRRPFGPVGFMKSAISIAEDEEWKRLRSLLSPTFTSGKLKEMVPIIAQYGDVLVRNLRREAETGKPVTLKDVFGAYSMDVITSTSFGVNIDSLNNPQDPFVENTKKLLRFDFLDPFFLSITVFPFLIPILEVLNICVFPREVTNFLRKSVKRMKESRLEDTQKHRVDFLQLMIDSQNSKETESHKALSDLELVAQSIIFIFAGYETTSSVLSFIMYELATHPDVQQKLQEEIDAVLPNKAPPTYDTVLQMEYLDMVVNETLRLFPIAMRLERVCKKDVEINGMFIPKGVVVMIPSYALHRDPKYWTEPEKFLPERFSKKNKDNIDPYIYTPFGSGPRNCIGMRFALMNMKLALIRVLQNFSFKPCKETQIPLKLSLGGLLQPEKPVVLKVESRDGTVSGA
Experiment [3] addresses Voltage-gated inwardly rectifying potassium channel KCNH2 (Homo sapiens, UniProt Q12809). The experiment can be described thus: Inhibition of hERG measured by fluorescence polarization assay.
The species named for a further experiment is Homo sapiens. The experiment is described as follows: RatioIC50 for inhibition of […] (unknown origin).
Experiment [4] addresses T1, Mitogen-activated protein kinase 10. The experiment is described as follows: Inhibition of JNK3 in human HEK293 cells transfected with JNK3-NanoLuc fusion vector measured after 1 hr by NanoBRET assay. The format is cell-based.
In another experiment the target is Cytochrome P450 2D6 (Homo sapiens, UniProt P10635). The experiment is described as follows: Inhibition of CYP2D6 (unknown origin) using EOMCC as a substrate. The format is ADME.
Sequence of Cytochrome P450 2D6 (P10635 whole entry): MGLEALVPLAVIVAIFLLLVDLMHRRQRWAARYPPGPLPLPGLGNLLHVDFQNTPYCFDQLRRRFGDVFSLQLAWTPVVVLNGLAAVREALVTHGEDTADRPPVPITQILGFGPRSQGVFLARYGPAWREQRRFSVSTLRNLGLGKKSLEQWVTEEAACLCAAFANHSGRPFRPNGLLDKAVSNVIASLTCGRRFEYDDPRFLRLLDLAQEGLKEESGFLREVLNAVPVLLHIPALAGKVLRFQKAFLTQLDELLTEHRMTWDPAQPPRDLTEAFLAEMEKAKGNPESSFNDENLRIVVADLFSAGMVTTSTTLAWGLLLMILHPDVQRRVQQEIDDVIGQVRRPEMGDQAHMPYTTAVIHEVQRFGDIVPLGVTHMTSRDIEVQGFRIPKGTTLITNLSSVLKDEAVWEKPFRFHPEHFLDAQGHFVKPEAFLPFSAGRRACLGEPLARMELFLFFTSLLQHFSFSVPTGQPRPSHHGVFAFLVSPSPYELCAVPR
Experiment [5] deals with Serine/threonine-protein kinase B-raf (Homo sapiens), P15056 [V600E]. The experiment is described as follows: Inhibition of B-RAF V600E mutant (unknown origin) at 1 uM relative to control.
Sequence of Serine/threonine-protein kinase B-raf (Homo sapiens), P15056 [V600E] (P15056 whole entry V600E): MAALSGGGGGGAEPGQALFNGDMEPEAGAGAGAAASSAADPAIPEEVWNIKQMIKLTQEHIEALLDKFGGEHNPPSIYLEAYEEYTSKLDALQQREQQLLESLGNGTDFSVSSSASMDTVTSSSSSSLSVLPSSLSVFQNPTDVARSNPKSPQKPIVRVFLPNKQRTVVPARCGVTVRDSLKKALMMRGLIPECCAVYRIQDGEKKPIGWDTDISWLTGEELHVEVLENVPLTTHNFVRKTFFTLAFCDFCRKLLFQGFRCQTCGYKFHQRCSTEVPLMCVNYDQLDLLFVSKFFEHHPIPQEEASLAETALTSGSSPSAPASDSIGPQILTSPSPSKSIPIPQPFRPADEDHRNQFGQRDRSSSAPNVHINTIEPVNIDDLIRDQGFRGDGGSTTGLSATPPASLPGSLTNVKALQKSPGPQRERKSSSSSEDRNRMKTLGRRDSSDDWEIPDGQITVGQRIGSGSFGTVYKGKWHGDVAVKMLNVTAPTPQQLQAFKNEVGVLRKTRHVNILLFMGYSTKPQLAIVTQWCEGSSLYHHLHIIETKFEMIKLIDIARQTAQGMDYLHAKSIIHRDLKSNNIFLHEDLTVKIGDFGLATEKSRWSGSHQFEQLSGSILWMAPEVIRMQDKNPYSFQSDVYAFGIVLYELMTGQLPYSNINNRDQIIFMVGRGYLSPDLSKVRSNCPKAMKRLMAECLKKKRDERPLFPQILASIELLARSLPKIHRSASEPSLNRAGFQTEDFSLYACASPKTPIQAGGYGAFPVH
Experiment [6] addresses T2, Platelet-derived growth factor receptor alpha (Homo sapiens, UniProt P16234). The experiment can be described thus: Inhibition of PDGFRalpha (unknown origin) at 1 uM relative to control.
Experiment [7] addresses T2, Platelet-derived growth factor receptor alpha. The experiment can be described thus: Inhibition of PDGFRalpha (unknown origin).

T2 sequence (P16234 whole entry): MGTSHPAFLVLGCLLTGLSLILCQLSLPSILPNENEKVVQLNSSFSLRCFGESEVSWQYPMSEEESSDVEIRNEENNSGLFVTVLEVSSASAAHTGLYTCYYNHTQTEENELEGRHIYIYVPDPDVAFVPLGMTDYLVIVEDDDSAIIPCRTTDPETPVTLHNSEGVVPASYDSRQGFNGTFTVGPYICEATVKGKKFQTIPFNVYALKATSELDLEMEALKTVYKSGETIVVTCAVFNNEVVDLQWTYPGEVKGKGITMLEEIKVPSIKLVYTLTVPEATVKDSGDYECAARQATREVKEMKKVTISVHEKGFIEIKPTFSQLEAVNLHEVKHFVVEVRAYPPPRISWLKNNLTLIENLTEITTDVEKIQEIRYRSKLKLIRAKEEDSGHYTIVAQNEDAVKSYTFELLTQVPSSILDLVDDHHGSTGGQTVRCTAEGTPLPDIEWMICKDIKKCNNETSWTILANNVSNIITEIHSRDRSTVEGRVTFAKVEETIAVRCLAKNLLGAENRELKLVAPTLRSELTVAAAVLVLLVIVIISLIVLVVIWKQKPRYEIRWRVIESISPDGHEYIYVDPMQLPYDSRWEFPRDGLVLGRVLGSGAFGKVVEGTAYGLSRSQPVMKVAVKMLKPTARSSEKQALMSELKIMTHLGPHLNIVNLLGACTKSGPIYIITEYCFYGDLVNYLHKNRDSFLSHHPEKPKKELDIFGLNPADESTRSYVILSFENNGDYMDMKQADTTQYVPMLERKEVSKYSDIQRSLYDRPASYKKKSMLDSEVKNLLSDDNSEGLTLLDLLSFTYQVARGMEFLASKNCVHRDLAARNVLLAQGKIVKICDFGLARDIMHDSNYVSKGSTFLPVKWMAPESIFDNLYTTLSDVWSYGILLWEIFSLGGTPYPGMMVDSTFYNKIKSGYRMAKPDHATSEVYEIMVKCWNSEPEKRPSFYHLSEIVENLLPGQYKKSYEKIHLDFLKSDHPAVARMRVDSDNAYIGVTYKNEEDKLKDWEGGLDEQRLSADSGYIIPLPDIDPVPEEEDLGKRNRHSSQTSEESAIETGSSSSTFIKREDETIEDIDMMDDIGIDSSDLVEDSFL
Sequence of Voltage-gated inwardly rectifying potassium channel KCNH2 (Q12809 whole entry): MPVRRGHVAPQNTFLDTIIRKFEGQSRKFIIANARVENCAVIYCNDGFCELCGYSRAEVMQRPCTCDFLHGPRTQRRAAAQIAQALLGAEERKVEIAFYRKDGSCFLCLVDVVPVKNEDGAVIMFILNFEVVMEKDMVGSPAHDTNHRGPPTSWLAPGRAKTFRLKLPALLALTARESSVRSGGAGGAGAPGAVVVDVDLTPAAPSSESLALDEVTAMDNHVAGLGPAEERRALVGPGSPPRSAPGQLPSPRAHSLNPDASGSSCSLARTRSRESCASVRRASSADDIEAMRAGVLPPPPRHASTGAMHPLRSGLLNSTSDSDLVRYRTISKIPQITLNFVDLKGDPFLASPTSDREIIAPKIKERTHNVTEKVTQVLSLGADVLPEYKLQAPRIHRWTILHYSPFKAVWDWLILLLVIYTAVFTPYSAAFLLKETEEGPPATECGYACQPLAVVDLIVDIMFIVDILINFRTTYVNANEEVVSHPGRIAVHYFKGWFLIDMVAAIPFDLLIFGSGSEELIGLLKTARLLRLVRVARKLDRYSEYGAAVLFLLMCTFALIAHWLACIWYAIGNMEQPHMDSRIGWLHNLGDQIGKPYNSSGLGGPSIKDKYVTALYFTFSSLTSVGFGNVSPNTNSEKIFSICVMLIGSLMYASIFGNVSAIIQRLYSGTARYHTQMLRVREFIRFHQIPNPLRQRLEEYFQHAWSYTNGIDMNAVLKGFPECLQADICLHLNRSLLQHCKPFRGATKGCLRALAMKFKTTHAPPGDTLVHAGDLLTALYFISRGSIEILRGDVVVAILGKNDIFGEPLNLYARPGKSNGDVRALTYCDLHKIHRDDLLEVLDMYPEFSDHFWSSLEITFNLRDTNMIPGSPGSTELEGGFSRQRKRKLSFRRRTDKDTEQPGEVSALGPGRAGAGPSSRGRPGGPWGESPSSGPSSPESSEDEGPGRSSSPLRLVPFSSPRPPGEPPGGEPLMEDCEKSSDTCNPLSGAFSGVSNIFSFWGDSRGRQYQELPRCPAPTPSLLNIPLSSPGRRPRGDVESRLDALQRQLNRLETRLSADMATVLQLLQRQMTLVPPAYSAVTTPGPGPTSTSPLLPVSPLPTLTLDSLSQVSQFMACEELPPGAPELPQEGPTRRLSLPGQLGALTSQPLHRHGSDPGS

Turning to `O=C(Nc1ccc(F)cc1)N1CCN(c2cc(-c3cn(-c4ccccc4)nc3-c3cccc(O)c3)ccn2)CC1`, in experiment [1], the inhibition was found to be 8%. Besides, the IC50 in experiment [2] is more than 1 µM.

As to `COc1cccc(-c2nn(-c3ccccc3)cc2-c2ccnc(N3CCN(C(=O)Nc4ccc(Cl)c(C(F)(F)F)c4)CC3)c2)c1`, the inhibition in experiment [1] came out at 7%. For the same compound, in experiment [2], the IC50 is more than 1 µM.

`COc1cccc(-c2nn(-c3ccccc3)cc2-c2ccnc(N3CCN(C(=O)Nc4ccc(Cl)c(Cl)c4)CC3)c2)c1` showed an inhibition in [1] of 4%. Besides, in experiment [2], the IC50 was more than 1 µM.

In experiment [1], `O=C(NCCNc1cc(-c2cn(-c3ccccc3)nc2-c2cccc(O)c2)ccn1)Nc1ccc(Cl)c(C(F)(F)F)c1` had an inhibition of 38%. The IC50 in experiment [2] is more than 1 µM.

In [1], `COc1cccc(-c2nn(-c3ccccc3)cc2-c2ccnc(N3CCN(C(=O)Nc4ccccc4)CC3)c2)c1` displayed an inhibition of 8%. This compound yielded an IC50 in [2] of more than 1 µM.

`COc1cccc(-c2nn(-c3ccccc3)cc2-c2ccnc(N3CCN(C(=O)Nc4cc(C(F)(F)F)cc(C(F)(F)F)c4)CC3)c2)c1`: the inhibition in experiment [1] is 9%. The same compound had a concentration for half-maximal inhibition (IC50) in [2] of more than 1 µM.

In experiment [1], `O=C(NCCNc1cc(-c2cn(-c3ccccc3)nc2-c2cccc(O)c2)ccn1)Nc1ccc(Cl)c(Cl)c1` had an inhibition of 69%. In addition, the IC50 in the experiment on HepG2 was 2.84 µM; in the experiment with WI-38, 17.4 µM; in [2], 0.526 µM.

Take `O=C(NCCCNc1cc(-c2cn(-c3ccccc3)nc2-c2cccc(O)c2)ccn1)Nc1ccc(Cl)c(C(F)(F)F)c1`: the inhibition in experiment [1] was 63%. This compound also had an IC50 in experiment [2] of 0.614 µM.

For `CNC(=O)c1cc(Oc2ccc(NC(=O)Nc3ccc(Cl)c(C(F)(F)F)c3)cc2)ccn1` [SORAFENIB], the TGI with TK-10 is 10 µM; in the experiment with ACHN, 10 µM; in the experiment on NCI-H23 it was 5.01 µM; with NCI/ADR-RES it was 7.94 µM; in the experiment on MOLT-4 it was 100 µM; in the experiment with UACC-257 it was 5.01 µM. The TGI is 100 µM in the experiment with HL-60(TB), 10 µM with IGROV-1, 5.01 µM in the experiment with HOP-92 and 7.94 µM in the experiment on MCF7. Moreover, the midpoint of inhibition with WI-38, the IC50, lay at 14.7 µM.

`O=C(Nc1ccccc1)N1CCN(c2cc(-c3cn(-c4ccccc4)nc3-c3cccc(O)c3)ccn2)CC1` returned an inhibition in [1] of 6%. The same compound registered an IC50 in experiment [2] of more than 1 µM.

The compound `O=C(Nc1ccc(Cl)c(Cl)c1)N1CCN(c2cc(-c3cn(-c4ccccc4)nc3-c3cccc(O)c3)ccn2)CC1` had an inhibition in experiment [1] of 3%. In [2], this compound had an IC50 of more than 1 µM.

With `O=C(NCCNc1cc(-c2cn(-c3ccccc3)nc2-c2cccc(O)c2)ccn1)Nc1cccc(C(F)(F)F)c1`, the inhibition in experiment [1] was 84%; in experiment [5], 9%; in experiment [6], 50%. For the same compound, the IC50 against Cytochrome P450 3A4 was 20.5 µM; in experiment [3] it was more than 50 µM; in experiment [4], 3.92 µM; with HepG2, 1.56 µM; against Cytochrome P450 2D6 it was 6.24 µM; with WI-38 it was 18.5 µM. Besides, the IC50 in experiment [2] stood at 0.099 µM; in [7], 1 µM. Besides, in the experiment listed under Homo sapiens, the Ratio IC50 came out at 10.1.

The compound `O=C(NCCNc1cc(-c2cn(-c3ccccc3)nc2-c2cccc(O)c2)ccn1)Nc1ccc(F)cc1` displayed an inhibition in experiment [1] of 83%. In experiment [2], the IC50 came out at 0.189 µM.

For the compound `O=C(Nc1cccc(C(F)(F)F)c1)N1CCN(c2cc(-c3cn(-c4ccccc4)nc3-c3cccc(O)c3)ccn2)CC1`, in experiment [1], the inhibition was 17%. Moreover, in [2], the IC50 was more than 1 µM.

For the compound `COc1cccc(-c2nn(-c3ccccc3)cc2-c2ccnc(N3CCN(C(=O)Nc4cccc(C(F)(F)F)c4)CC3)c2)c1`, the inhibition in [1] stood at 10%. The IC50 in experiment [2] is more than 1 µM.

Turning to `O=C(NCCCNc1cc(-c2cn(-c3ccccc3)nc2-c2cccc(O)c2)ccn1)Nc1cc(C(F)(F)F)cc(C(F)(F)F)c1`, in [1], the inhibition came out at 0%. Moreover, the IC50 in experiment [2] is more than 1 µM.

Turning to `COc1cccc(-c2nn(-c3ccccc3)cc2-c2ccnc(N3CCN(C(=O)Nc4ccc(F)cc4)CC3)c2)c1`, the inhibition in [1] stood at 0%. In addition, the IC50 in experiment [2] was more than 1 µM.

In the case of `O=C(NCCNc1cc(-c2cn(-c3ccccc3)nc2-c2cccc(O)c2)ccn1)Nc1cc(C(F)(F)F)cc(C(F)(F)F)c1`, the inhibition in experiment [1] is 19%. The IC50 in experiment [2] was more than 1 µM.

`O=C(NCCCNc1cc(-c2cn(-c3ccccc3)nc2-c2cccc(O)c2)ccn1)Nc1ccc(Cl)c(Cl)c1`: the inhibition in [1] turned out to be 13%. Besides, in [2], the IC50 is more than 1 µM.

In turn, `O=C(Nc1cc(C(F)(F)F)cc(C(F)(F)F)c1)N1CCN(c2cc(-c3cn(-c4ccccc4)nc3-c3cccc(O)c3)ccn2)CC1` displayed an inhibition in experiment [1] of 1%. This compound showed an IC50 in [2] of more than 1 µM.
